In publication PMC11315935, “Multi-layered heterochromatin interaction as a switch for DIM2-mediated DNA methylation” (Nature Communications, 2024):

Columns and labels:
HP1 = experiment: Size-exclusion chromatography of DIM2-HP1 complex; type: binding, Neurospora Crassa; settings: 1.0 µM DIM2 and/or 2.5 µM HP1, Superdex 200 increase 10/300 GL, pH 7.5
Procedure: For size-exclusion chromatography analysis, 400 µL of the sample mixture containing 1.0 µM DIM2 and/or 2.5 µM HP1 was loaded onto Superdex 200 increase 10/300 GL column (GE Healthcare) and eluted at a flow rate of 0.5 mL/min, in the buffer containing 20 mM Tris-HCl (pH 7.5), 100 mM NaCl, 5% glycerol, and 5 mM DTT. The proteins in each fraction were then visualized by SDS-PAGE.

[1] = tested on: (CTA)12/(TAG)12 36-mer DNA duplex; experiment: In vitro DNA methylation assay of DIM2 (WT or mutant); type: biochemical; design: DNA methylation activity: unit not given here; settings: 30 min
DIM2, W261A/W581A = experiment: ITC binding of H3K9me3 peptide, DIM2 W261A/W581A; design: species or system Neurospora Crassa; settings: 7 °C, pH 7.5, NDB, no detectable binding
Procedure: (§1) ITC measurements were performed using a MicroCal iTC200 instrument (GE Healthcare). To measure the bindings between proteins and H3K9me3 peptide, 0.04–0.05 mM DIM2, WT or mutant (W261A, W581A, or W261A/W581A), DIM2 RFTS domain, or HP1, WT or mutant (W98A), was titrated with 0.5 mM histone peptide at 7 °C. Prior to the titration, both peptide and protein samples were subjected to overnight dialysis against buffer containing 20 mM Tris-HCl (pH 7.5), 100 mM NaCl, and 1 mM β-mercaptoethanol. Buffer to buffer titration was performed to ensure no abnormality of baseline. Analyses of all data were performed with MicroCal Origin software, fitted with single-site binding mode.

DIM2, W581A = experiment: ITC binding of H3K9me3 peptide, DIM2 W581A; design: species or system Neurospora Crassa
Procedure: as §1

DIM2 = experiment: In vitro DNA methylation assay: effect of HP1 and H3 peptides on DIM2 activity; type: biochemical, Neurospora Crassa; settings: 36-mer DNA duplex, 1.0 µM peptide and/or 2 µM HP1
Procedure: In vitro DNA methylation assay was performed in a 20-µL reaction mixture. For the substrate specificity assay, the following DNA duplexes were used as substrates: CG DNA (Upper strand: 5’-[…]-3’), hemimethylated CG DNA (Upper strand: 5’-TAAATTTXGATTAATAAT-3’, X = 5-methylcytosine; Lower strand: 5’-[…] -3’), CHG DNA (Upper strand: 5’-[…]-3’), and CHH DNA (Upper strand: 5’-[…]-3’). The reaction mixture contains 0.25 µM DIM2, 1.0 µM DNA duplex, 1.0 µM synthesized H3K9me3 peptide (residues 1-24 of H3 plus a C-terminal tryptophan), 0.5 µM HP1, and 0.56 µM S-adenosyl-L-[methyl-^3H] methionine with a specific activity of 18 Ci/mmol (PerkinElmer) in buffer containing 50 mM Tris-HCl (pH 8.0), 100 mM NaCl, 0.05% β-mercaptoethanol, 5% glycerol, and 200 µg/mL BSA. For the rest of the DNA methylation assay, each reaction mixture contains 1.0 µM DIM2, […] methionine with a specific activity of 18 Ci/mmol (PerkinElmer) in buffer containing 50 mM Tris-HCl (pH 8.0), 100 mM NaCl, 0.05% β-mercaptoethanol, 5% glycerol, and 200 µg/mL BSA. In addition, 1.0 µM synthesized H3K9me3 or H3K9me0 peptide (residues 1-24 of H3 plus a C-terminal tryptophan) and/or 2 µM HP1 protein was included to evaluate the effect of H3 and HP1 regulation. The reaction mixture was incubated at 30 °C for 30 min, unless indicated otherwise, before being quenched by the addition of 5 µL of 10 mM cold SAM. After the reaction, 8 μL of the mixtures was loaded onto Hybond N nylon membrane (GE Healthcare), which was left to dry out at room temperature. The membrane was subsequently washed with 0.2 M ammonium bicarbonate (pH 8.2) two times (20 min per time), deionized water (20 min) once, and 95% ethanol (5 min) once. After air dried, the membrane carrying each sample was transferred into a vial containing 3 mL scintillation buffer (Fisher). The tritium scintillation was measured and recorded by a Beckman LS6500 counter. Each the reaction was repeated three times.

DIM2, W261A = experiment: ITC binding of H3K9me3 peptide, DIM2 W261A; design: species or system Neurospora Crassa
Procedure: as §1

Substance: DIM2WT: Neurospora Crassa DIM2 (NCBI accession no. XP_959891.1) (residues 1-1242)
- DIM2-HP1 complex formation (in words) (HP1): co-migration
- DNA methylation activity of DIM2 (in words) ([1]; 1.0 µM DIM2, 30 °C, pH 8.0): no detectable activity
- DNA methylation activity ([1]; Fig. 1b, 1.0 µM DIM2, 1.0 µM DNA duplex, 0.56 µM [methyl-3H]SAM, 1.0 µM H3 peptide and/or 2 µM HP1, pH 8.0, 30 °C, tritium scintillation, replicate 1): -0.021
- DNA methylation activity ([1]; Fig. 1b, 1.0 µM DIM2, 1.0 µM DNA duplex, 0.56 µM [methyl-3H]SAM, 1.0 µM H3 peptide and/or 2 µM HP1, pH 8.0, 30 °C, tritium scintillation, replicate 2): -0.01
- DNA methylation activity ([1]; Fig. 1b, 1.0 µM DIM2, 1.0 µM DNA duplex, 0.56 µM [methyl-3H]SAM, 1.0 µM H3 peptide and/or 2 µM HP1, pH 8.0, 30 °C, tritium scintillation, replicate 3): -0.04
- DNA methylation activity ([1]; Fig. 2g, in the presence of HP1 (2 µM) and H3_1-24K9me3 peptide (1.0 µM), 1.0 µM DIM2, 30 °C, pH 8.0, replicate 1): 20.908
- DNA methylation activity ([1]; Fig. 2g, in the presence of HP1 (2 µM) and H3_1-24K9me3 peptide (1.0 µM), 1.0 µM DIM2, 30 °C, pH 8.0, replicate 2): 20.644
- DNA methylation activity ([1]; Fig. 2g, in the presence of HP1 (2 µM) and H3_1-24K9me3 peptide (1.0 µM), 1.0 µM DIM2, 30 °C, pH 8.0, replicate 3): 18.328
- DNA methylation activity ([1]; Fig. 5f, DNA binding-associated mutants, 1.0 µM DIM2, 1.0 µM DNA duplex, 30 °C, pH 8.0, replicate 1): 14.337
- DNA methylation activity ([1]; Fig. 5f, DNA binding-associated mutants, 1.0 µM DIM2, 1.0 µM DNA duplex, 30 °C, pH 8.0, replicate 2): 13.213
- DNA methylation activity ([1]; Fig. 5f, DNA binding-associated mutants, 1.0 µM DIM2, 1.0 µM DNA duplex, 30 °C, pH 8.0, replicate 3): 13.147
- DNA methylation activity ([1]; Fig. 3h, in the presence of HP1 (2 µM) and H3_1-24K9me3 peptide (1.0 µM), 1.0 µM DIM2, 30 °C, pH 8.0, replicate 1): 22.922
- DNA methylation activity ([1]; Fig. 3h, in the presence of HP1 (2 µM) and H3_1-24K9me3 peptide (1.0 µM), 1.0 µM DIM2, 30 °C, pH 8.0, replicate 2): 23.125
- DNA methylation activity ([1]; Fig. 3h, in the presence of HP1 (2 µM) and H3_1-24K9me3 peptide (1.0 µM), 1.0 µM DIM2, 30 °C, pH 8.0, replicate 3): 22.99
- DNA methylation activity ([1]; Fig. 6d, H3_1-24K9me3 binding-associated mutants, 1.0 µM DIM2, 1.0 µM DNA duplex, 30 °C, pH 8.0, replicate 1): 19.42
- DNA methylation activity ([1]; Fig. 6d, H3_1-24K9me3 binding-associated mutants, 1.0 µM DIM2, 1.0 µM DNA duplex, 30 °C, pH 8.0, replicate 2): 16.017
- DNA methylation activity ([1]; Fig. 6d, H3_1-24K9me3 binding-associated mutants, 1.0 µM DIM2, 1.0 µM DNA duplex, 30 °C, pH 8.0, replicate 3): 17.874

Substance: H31-24K9me3: synthesized H3K9me3 peptide (residues 1-24 of H3 plus a C-terminal tryptophan)
- Kd (DIM2, W261A/W581A): NDB
- Kd (DIM2, W261A/W581A; listed as H3K9me3 peptide): complete abolishment
- reduction of peptide-binding affinity vs WT DIM2 (DIM2, W581A): ~10 fold
- effect on DNA methylation activity of DIM2 (in words) (DIM2): failed to activate DIM2 appreciably
- enhanced binding affinity vs WT DIM2 (DIM2, W261A; W261A vs WT): ~ 2.3 fold
- BAH1-H3K9me3 binding stronger than RFTS-H3K9me3 binding by (DIM2, W261A; in the absence of DNA): ~ 24 fold
